Experiment [1] has as its system CK1. As to the kind of experiment: CK1 protein kinase assay. The class given is biochemical, human. Particulars: CK1. The text has this: (§1) All protein kinases were of human origin and encoded full length proteins, unless indicated otherwise. They were either expressed as glutathione S-transferase (GST) fusion proteins in Escherichia Coli or as hexahistidine (His6)-tagged proteins in insect Sf21 cells. GST fusion proteins were purified by affinity chromatography on glutathione-Sepharose, and His6-tagged proteins on nickel/nitriloacetate-agarose. The procedures for expressing some of the protein kinases used herein have been detailed previously.^8,9 The following sections outline the DNA vectors synthesised and the procedures used to express and purifying protein kinases that have not been reported previously.
(§2) All assays (25.5 μl) were carried out at room temperature (21° C.) and were linear with respect to time and enzyme concentration under the conditions used. Assays were performed for 30 min using Multidrop Micro reagent dispensers (Thermo Electron Corporation, Waltham, Mass. 02454, USA) in a 96-well format. The concentration of magnesium acetate in the assays was 10 mM and the [γ-33P] ATP (800 cpm/pmol) was used at 5, 20 or 50 μM as indicated, in order to be at or below the Km for ATP for each enzyme. Protein kinases assayed at 5 μM ATP were: —ERK1, ERK8, PKBα, MARK3, Aurora C. Protein kinases assayed at 20 μM ATP were: —JNK1, PDK1, CHK1, CHK2, CDK2 and Aurora B. Protein kinases assayed at 50 μM ATP were: —MNK2, IKKepsilon and TBK1.
(§3) The assays were initiated with MgATP, stopped by addition of 5 μl of 0.5 M orthophosphoric acid and spotted on to P81 filterplates using a unifilter harvester (PerkinElmer, Boston, Mass. 02118, USA). The IC50 values of inhibitors were determined after carrying out assays at 10 different concentrations of each compound.
(§4) Unless stated otherwise, enzymes were diluted in 50 mM Tris/HCl pH 7.5, 0.1 mM EGTA, 1 mg/ml BSA, 0.1% (v/v) 2-mercaptoethanol and assayed in 50 mM Tris/HCl pH 7.5, 0.1 mM EGTA, 0.1% (v/v) 2-mercaptoethanol.

Experiment [2] has as its target T1, MAPKAP-K2 (Homo sapiens, UniProt P49137).
T1 construct: All protein kinases were of human origin and encoded full length proteins, unless indicated otherwise; made in house
Briefly: MAPKAP-K2 protein kinase assay. The class given is biochemical. The conditions noted are these: MAPKAP-K2, read-out: residual kinase activity.
Excerpt: as §1, §2, §3, §4

Experiment [3] concerns the target T2, PLK1 (Okadaic Acid) (Homo sapiens, UniProt P53350).
T2 construct: All protein kinases were of human origin and encoded full length proteins, unless indicated otherwise; made in house; host or cells: probably Sf21 insect cells treated with okadaic acid (inferred from the row name; the text says this only of Aurora B and C)
Briefly: PLK1 (Okadaic Acid) protein kinase assay. The conditions noted are these: PLK1 (Okadaic Acid), read-out: residual kinase activity. The class given is biochemical.
Excerpt: as §1, §2, §3, §4

Experiment [4] has as its system SmMLCK. Briefly: SmMLCK protein kinase assay. In kind it is biochemical, human. Particulars: SmMLCK.
Excerpt: as §1, §2, §3, §4

Experiment [5] relates to AMPK. Briefly: AMPK protein kinase assay. The class given is biochemical, human. Particulars: AMPK.
Excerpt: as §1, §2, §3, §4

In experiment [6] the target is T3, Lck (Homo sapiens, UniProt P06239).
T3 construct: All protein kinases were of human origin and encoded full length proteins, unless indicated otherwise; made in house
T3 sequence (P06239 whole entry): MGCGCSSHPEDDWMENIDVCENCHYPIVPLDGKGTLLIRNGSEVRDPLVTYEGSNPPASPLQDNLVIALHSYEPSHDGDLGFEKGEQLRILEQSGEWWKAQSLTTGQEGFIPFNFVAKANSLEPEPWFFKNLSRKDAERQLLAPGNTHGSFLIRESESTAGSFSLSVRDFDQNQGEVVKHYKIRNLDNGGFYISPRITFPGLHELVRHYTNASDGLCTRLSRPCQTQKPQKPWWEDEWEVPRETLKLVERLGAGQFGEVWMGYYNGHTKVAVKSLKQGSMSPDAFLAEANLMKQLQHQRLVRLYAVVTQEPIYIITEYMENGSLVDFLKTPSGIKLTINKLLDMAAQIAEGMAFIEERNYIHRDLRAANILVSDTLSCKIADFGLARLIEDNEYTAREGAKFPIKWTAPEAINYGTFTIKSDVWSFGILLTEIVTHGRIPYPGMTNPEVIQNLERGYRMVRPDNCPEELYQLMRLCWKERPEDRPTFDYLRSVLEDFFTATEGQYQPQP
Briefly: Lck protein kinase assay. The class given is biochemical. Particulars: Lck, read-out: residual kinase activity.
Excerpt: as §1, §2, §3, §4

Experiment [7] deals with T4, ERK2 (Homo sapiens, UniProt P28482).
T4 construct: All protein kinases were of human origin and encoded full length proteins, unless indicated otherwise; made in house
T4 sequence (P28482 2-360): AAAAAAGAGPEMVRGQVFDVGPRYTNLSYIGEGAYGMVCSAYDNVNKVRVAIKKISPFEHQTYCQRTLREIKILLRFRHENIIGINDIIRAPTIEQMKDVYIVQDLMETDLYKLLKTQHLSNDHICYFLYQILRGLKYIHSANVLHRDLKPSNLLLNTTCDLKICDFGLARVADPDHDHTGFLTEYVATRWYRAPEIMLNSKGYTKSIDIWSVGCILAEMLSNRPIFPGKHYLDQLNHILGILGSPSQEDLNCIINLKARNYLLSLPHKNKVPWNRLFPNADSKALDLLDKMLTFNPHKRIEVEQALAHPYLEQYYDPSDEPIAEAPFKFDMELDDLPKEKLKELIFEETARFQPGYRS
As to the kind of experiment: ERK2 protein kinase assay. In kind it is biochemical. Particulars: ERK2, read-out: residual kinase activity.
Excerpt: as §1, §2, §3, §4

For experiment [8], the target named is T5, CDK2-Cyclin A (Homo sapiens, UniProt P24941).
T5 construct: All protein kinases were of human origin and encoded full length proteins, unless indicated otherwise; GST (cleaved yes); made in house; host or cells: E. coli
Briefly: CDK2-Cyclin A protein kinase assay. The conditions noted are these: CDK2-Cyclin A, 20 μM ATP, read-out: residual kinase activity. The class given is biochemical.
Excerpt: as §1
The following proteins were expressed in E. coli: —CHK2[5-543], cyclin-dependent protein kinase 2 (CDK2), MAP kinase-interacting kinase 2 (MNK2), extra-cellular signal-regulated kinase 1 (ERK1).
In order to produce activated forms of Aurora B and Aurora C, insect Sf21 cells were incubated for 1 h with the protein phosphatase inhibitor okadaic acid (50 nM). JNK isoforms were activated with MKK4 and MKK7, MNK2 with p38α MAPkinase; PKBα, PKBβ, with PDK1, and ERK1 with MKK1. To activate CDK2, bacterial pellets expressing cyclin A2 and CDK2 were mixed together, lyse and purified on glutathione Sepharose. The GST-tags were removed by cleavage with PreScission protease and the CDK2-cyclin A2 complex purified by chromatography on SP-Sepharose. It was then activated with CAK1/CDK7 followed by chromatography on nickel-nitrilotriacetate agarose to remove CAK1/CDK7, which binds to this column by virtue of its C-terminal His6 tag. All the other protein kinases were active as expressed.
as §2, §3, §4

For experiment [9], the system named is ROCK 2. As to the kind of experiment: ROCK 2 protein kinase assay. In kind it is biochemical, human. The conditions noted are these: ROCK 2.
Excerpt: as §1, §2, §3, §4

Experiment [10] concerns the target T6, YES1 (Homo sapiens, UniProt P07947).
T6 construct: All protein kinases were of human origin and encoded full length proteins, unless indicated otherwise; made in house
Briefly: YES1 protein kinase assay. The class given is biochemical. Particulars: YES1, read-out: residual kinase activity.
Excerpt: as §1, §2, §3, §4

The target in experiment [11] is T7, DYRK1A (Homo sapiens, UniProt Q13627).
T7 construct: All protein kinases were of human origin and encoded full length proteins, unless indicated otherwise; made in house
Briefly: DYRK1A protein kinase assay. The class given is biochemical. Particulars: DYRK1A, read-out: residual kinase activity.
Excerpt: as §1, §2, §3, §4

The target of experiment [12] is T8, MNK1 (Homo sapiens, UniProt Q9BUB5).
T8 construct: All protein kinases were of human origin and encoded full length proteins, unless indicated otherwise; made in house
T8 sequence (Q9BUB5 whole entry): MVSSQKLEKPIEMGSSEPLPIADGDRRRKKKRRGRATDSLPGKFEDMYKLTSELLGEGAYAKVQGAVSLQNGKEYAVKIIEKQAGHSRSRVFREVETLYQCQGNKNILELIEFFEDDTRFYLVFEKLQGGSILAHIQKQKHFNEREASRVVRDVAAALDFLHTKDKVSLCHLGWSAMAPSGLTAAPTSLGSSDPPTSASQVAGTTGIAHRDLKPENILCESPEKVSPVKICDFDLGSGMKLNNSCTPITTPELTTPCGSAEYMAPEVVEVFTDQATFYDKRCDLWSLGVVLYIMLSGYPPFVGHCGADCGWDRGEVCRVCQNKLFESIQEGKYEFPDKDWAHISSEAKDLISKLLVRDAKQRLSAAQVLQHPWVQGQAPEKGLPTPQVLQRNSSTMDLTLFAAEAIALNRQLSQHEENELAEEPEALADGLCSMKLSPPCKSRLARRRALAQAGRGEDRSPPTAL
As to the kind of experiment: MNK1 protein kinase assay. The class given is biochemical. The conditions noted are these: MNK1, read-out: residual kinase activity.
Excerpt: as §1, §2, §3, §4

Each structure is given as a SMILES string. Counter-ions that a name gives are not always drawn.

T2 sequence (P53350 whole entry): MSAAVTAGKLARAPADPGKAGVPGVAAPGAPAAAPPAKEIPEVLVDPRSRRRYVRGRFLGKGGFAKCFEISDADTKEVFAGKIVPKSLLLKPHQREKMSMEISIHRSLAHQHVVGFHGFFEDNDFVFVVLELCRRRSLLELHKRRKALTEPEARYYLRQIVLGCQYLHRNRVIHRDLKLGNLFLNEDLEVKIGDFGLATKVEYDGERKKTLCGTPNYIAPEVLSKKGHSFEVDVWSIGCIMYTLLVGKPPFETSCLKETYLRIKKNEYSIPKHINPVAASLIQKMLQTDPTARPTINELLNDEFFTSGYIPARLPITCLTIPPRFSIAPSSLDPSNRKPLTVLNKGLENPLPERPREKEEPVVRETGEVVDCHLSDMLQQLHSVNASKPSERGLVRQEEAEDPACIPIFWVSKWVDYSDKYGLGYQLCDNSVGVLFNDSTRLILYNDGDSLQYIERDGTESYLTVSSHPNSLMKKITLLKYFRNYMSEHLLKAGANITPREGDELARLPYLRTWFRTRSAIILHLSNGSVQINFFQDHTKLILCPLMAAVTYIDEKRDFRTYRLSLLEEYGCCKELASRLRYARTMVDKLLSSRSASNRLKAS
T6 sequence (P07947 whole entry): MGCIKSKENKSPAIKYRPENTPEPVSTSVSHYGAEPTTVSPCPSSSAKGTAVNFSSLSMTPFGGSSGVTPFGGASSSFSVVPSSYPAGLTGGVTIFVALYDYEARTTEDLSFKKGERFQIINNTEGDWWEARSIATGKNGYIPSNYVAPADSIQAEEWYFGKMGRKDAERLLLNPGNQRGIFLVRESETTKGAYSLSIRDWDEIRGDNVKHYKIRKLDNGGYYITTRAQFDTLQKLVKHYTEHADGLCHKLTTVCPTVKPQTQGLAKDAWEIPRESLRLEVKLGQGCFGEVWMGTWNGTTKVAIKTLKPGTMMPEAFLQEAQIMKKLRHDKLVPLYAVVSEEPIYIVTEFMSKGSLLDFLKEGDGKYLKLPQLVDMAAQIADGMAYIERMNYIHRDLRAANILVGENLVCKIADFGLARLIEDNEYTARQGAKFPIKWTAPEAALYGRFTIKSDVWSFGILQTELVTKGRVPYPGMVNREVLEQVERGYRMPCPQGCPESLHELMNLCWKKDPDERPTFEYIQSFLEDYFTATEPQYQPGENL
T1 sequence (P49137 46-400 limits assumed): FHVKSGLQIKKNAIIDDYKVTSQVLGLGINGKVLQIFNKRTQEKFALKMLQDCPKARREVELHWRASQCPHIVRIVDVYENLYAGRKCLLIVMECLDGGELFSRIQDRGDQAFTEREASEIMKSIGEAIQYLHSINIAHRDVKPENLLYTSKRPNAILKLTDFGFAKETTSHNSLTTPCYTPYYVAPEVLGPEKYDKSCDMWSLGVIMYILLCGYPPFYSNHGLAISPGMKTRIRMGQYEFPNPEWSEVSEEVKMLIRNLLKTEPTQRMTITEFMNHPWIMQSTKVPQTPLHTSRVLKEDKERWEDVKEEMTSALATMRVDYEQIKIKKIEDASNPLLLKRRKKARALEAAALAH

Turning to `O=C(NCCCNc1nc(Nc2cccc(N3CCCC3=O)c2)ncc1C1CC1)c1cccs1` [Example 47, Thiophene-2-carboxylic acid (3-{5-cyclopropyl-2-[3-(2-oxo-pyrrolidin-1-yl)-phenylamino]-pyrimidin-4-ylamino}-propyl)-amide. Hydrochloride salt], the residual kinase activity in [1] (1 μM compound) is listed as 102%; in experiment [1] (10 μM compound), 106%; in experiment [4] (1 μM compound) it was 102%; in experiment [4] (10 μM compound), 81%; in experiment [5] (1 μM compound) it was 77%; in [5] (10 μM compound) it was 30%. Further, the residual kinase activity in experiment [9] (1 μM compound) is given as 85%; in [9] (10 μM compound) it was 48%. Further, the remaining activity at 1 µM in [2] (1 μM compound) came out at 75%; in experiment [3] (1 μM compound) it was 90%; in experiment [6] (1 μM compound), 105%; in experiment [7] (1 μM compound), 90%; in experiment [8] (1 μM compound) it was 70%; in experiment [10] (1 μM compound) it was 94%. In addition, the values for the remaining activity at 1 µM in [11] (1 μM compound) and in [12] (1 μM compound) were 84% and 93%, respectively. For the same compound, the remaining activity at 10 µM in experiment [2] (10 μM compound) amounted to 95%; in [3] (10 μM compound) it was 64%; in experiment [6] (10 μM compound), 69%; in experiment [7] (10 μM compound), 66%; in experiment [8] (10 μM compound), 29%; in [10] (10 μM compound), 74%. The figures for the remaining activity at 10 µM in experiment [11] (10 μM compound) and in [12] (10 μM compound) were 78% and 73%, respectively.

These data come from patent US20100056524A1, “Compound” (priority 2008, published 2010).
